Test results as given in ChEMBL document CHEMBL1123008, “Synthesis and antinociceptive activity of 4-(cyclopropylmethyl)-3,4,5,6-tetrahydro-2H-1,5-methano-1, 4-benzodiazocin-9-amine and congeners” (1985).

What was measured:
Format in all cases: functional
[1] = test system: Rattus norvegicus; test: In vivo narcotic antagonist activity by rat phenazocine antagonism test through subcutaneous administration
[2] = test system: Rattus norvegicus; test: In vivo narcotic antagonist activity in rat after subcutaneous administration at 60 mg/kg & lethal at 120 mg/kg
[3] = test system: Mus musculus; test: Maximum analgesic agonist activity obtained by mouse acetylcholine writhing test through subcutaneous administration at 75 mg/kg; conditions: sc
[4] = test system: Rattus norvegicus; test: In vivo narcotic antagonist activity in rat after subcutaneous administration at 80 mg/kg; conditions: sc
[5] = test system: Mus musculus; test: Analgesic agonist activity by mouse acetylcholine writhing test through subcutaneous administration; conditions: sc
[6] = test system: Rattus norvegicus; test: In vivo narcotic antagonist activity by AD50 vs. meperidine through oral administration
[7] = test system: Rattus norvegicus; test: In vivo narcotic antagonist activity in rat after oral administration of the compound
[8] = test system: Rattus norvegicus; test: In vivo narcotic antagonist activity by rat phenylquinone test through subcutaneous administration; conditions: sc
[9] = test system: Rattus norvegicus; test: In vivo narcotic antagonist activity by rat phenylquinone test through oral administration
[10] = test system: Rattus norvegicus; test: In vivo narcotic antagonist activity by AD50 vs. meperidine through subcutaneous administration
[11] = test system: Rattus norvegicus; test: Analgesic agonist activity by rat tail-flick test through subcutaneous administration; Inactive at 120 mg/kg; conditions: sc
[12] = test system: Rattus norvegicus; test: In vivo narcotic antagonist activity by AD50 vs. morphine through subcutaneous administration
[13] = test system: Rattus norvegicus; test: In vivo narcotic antagonist activity by AD50 vs. morphine through oral administration
[14] = test system: Rattus norvegicus; test: Analgesic agonist activity by rat tail-flick test through oral administration; Inactive at 200 mg/kg
[15] = test system: Rattus norvegicus; test: In vivo narcotic antagonist activity in rat after subcutaneous administration of the compound
[16] = species on record: Rattus norvegicus; test: animal or person; conditions: in Mus musculus, sc
[17] = test system: Rattus norvegicus; test: In vivo narcotic antagonist activity by rat phenazocine antagonism test through subcutaneous administration at 10 mg/kg
[18] = test system: Rattus norvegicus; test: In vivo narcotic antagonist activity in rat after subcutaneous administration at 10 mg/kg & convulsions at 20 mg/kg; conditions: sc
[19] = test system: Rattus norvegicus; test: Analgesic agonist activity by rat intracarotid bradykinin writhing test through subcutaneous administration; conditions: sc
[20] = test system: Rattus norvegicus; test: In vivo narcotic antagonist activity by rat phenazocine antagonism test through oral administration

CCNc1ccc2c(c1)N1CCN(CC3CC3)C(C2)C1.Cl (stereo not given)
AD50 [1]: 4.4 mg/kg
Inhibition [2]: 17%

Nc1ccc2c(c1)N1CCN(CC3CC3)[C@@H](C2)C1
inhibition in vivo at 75 mg/kg [3]: 67%
inhibition in vivo at 80 mg/kg [4]: 25%
ED50 [5]: 40 mg/kg

Nc1ccc2c(c1)N1CCN(CC3CC3)C(C2)C1 (stereo not given)
AD50 [6]: 4.8 mg/kg
AD50 [7]: 3.5 mg/kg
ED50 [8]: 1.8 mg/kg
ED50 [9]: 5.7 mg/kg
AD50 [10]: 3.3 mg/kg
AD50 [1]: 1.6 mg/kg
ED50 [11]: 1 mg/kg
AD50 [12]: 8.6 mg/kg
AD50 [13]: 13 mg/kg
ED50 [14]: 1 mg/kg

C=CCN1CCN2CC1Cc1ccc(N)cc12.CCS(=O)(=O)O (stereo not given)
AD50 [15]: 1.6 mg/kg

CCS(=O)(=O)O.c1ccc2c(c1)CC1CN2CCN1CC1CC1 (stereo not given)
ED50 [11]: 1 mg/kg
AD50 [15]: 34 mg/kg

CN1CC[C@]23c4c5ccc(O)c4O[C@H]2[C@@H](O)C=C[C@H]3[C@H]1C5.CN1CC[C@]23c4c5ccc(O)c4O[C@H]2[C@@H](O)C=C[C@H]3[C@H]1C5.O=S(=O)(O)O
ED50 [16]: 0.21 mg/kg

CCCCNc1ccc2c(c1)N1CCN(CC3CC3)C(C2)C1 (stereo not given)
AD50 [17]: 1 mg/kg
ED50 [18]: 1 mg/kg

Oc1ccc2c(c1)N1CCN(CC3CC3)C(C2)C1 (stereo not given)
AD50 [1]: 0.02 mg/kg
ED50 [19]: 37 mg/kg
ED50 [5]: 10 mg/kg
AD50 [20]: 3.2 mg/kg

Nc1ccc2c(c1)N1CCN(CC3CC3)[C@H](C2)C1
AD50 [15]: 0.31 mg/kg
ED50 [5]: 1 mg/kg

C=CCN1CC[C@]23c4c5ccc(O)c4O[C@H]2[C@@H](O)C=C[C@H]3[C@H]1C5.Cl [NALORPHINE HYDROCHLORIDE]
ED50 [19]: 0.24 mg/kg
AD50 [15]: 0.032 mg/kg
ED50 [16]: 2.8 mg/kg
